One test deals with T1, TRβ (Homo sapiens, UniProt P10828).
T1 construct: expressed in transfected cells; host or cells: HEK293
T1 sequence (P10828 217-461 limits assumed): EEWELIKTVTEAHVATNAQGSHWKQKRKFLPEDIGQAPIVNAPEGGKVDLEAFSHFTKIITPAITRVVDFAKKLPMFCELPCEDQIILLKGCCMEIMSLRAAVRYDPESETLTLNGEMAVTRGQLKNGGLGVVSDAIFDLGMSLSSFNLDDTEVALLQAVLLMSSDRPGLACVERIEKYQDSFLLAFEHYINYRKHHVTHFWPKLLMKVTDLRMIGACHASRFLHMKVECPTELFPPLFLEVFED
The test can be described thus: Thyroid-hormone reporter-gene assay (TRβ-Gal4 hybrid, luciferase, HEK293). It counts as cell-based. Conditions: for T3-SI (selectivity index): calculated as EC50 (TRα)/EC50 (TRβ). As to the method: (§1) Compounds were tested for thyroid-hormone receptor activity using TR reporter-gene assays. Reporter cells used in the assays express a TR-receptor hybrid (either TRα or TRβ) in which the native N-terminal DNA binding domain (DBD) has been replaced with that of the yeast Gal4 DBD. The reporter gene, firefly luciferase, is functionally linked to the Gal4 upstream activation sequence (UAS). Both cell lines were derived from human embryonic kidney (HEK293).
(§2) Step 1: A suspension of reporter cells was prepared in cell recovery medium containing 10% charcoal-stripped FBS, and dispensed into assay plates. The plates were pre-incubated for 6 hours in a cell culture incubator (37° C./5% CO2/85% humidity).
(§3) These intermediate stocks were subsequently diluted directly into compound screening medium containing 10% charcoal-stripped FBS to generate “2×-concentration” treatment media (containing 0.2, 0.4 or 0.8% DMSO).
(§4) Step 3: At the end of the pre-incubation period, culture media were discarded from the assay plates, and all wells received 100 μl of compound screening medium. 100 μl of each of the previously prepared “2×-concentration” treatment media were dispensed into duplicate assay wells, thereby achieving the desired final treatment concentrations. The final concentration of DMSO in all assay wells was 0.1, 0.2 or 0.4%. Assay plates were incubated for 24 hr in a cell culture incubator (37° C./5% CO2/85% humidity).
(§5) Step 4: At the 24 h assay endpoint, treatment media were discarded and 100 μl/well of luciferase detection reagent was added. Relative luminometer units (RLUs) were quantified from each assay well.

A further test addresses T2, TRα (Homo sapiens, UniProt P10827).
T2 construct: expressed in transfected cells; host or cells: HEK293
T2 sequence (P10827 163-410 isoform P10827-2 limits assumed): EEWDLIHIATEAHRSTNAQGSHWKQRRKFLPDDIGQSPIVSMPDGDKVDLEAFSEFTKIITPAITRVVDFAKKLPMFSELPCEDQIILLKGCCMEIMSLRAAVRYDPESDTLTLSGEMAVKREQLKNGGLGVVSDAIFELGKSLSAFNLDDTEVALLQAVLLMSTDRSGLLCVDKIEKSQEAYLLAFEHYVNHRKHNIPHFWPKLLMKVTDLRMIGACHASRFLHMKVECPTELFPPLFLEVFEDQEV
Kind of test: Thyroid-hormone reporter-gene assay (TRα-Gal4 hybrid, luciferase, HEK293). It counts as cell-based. As to the method: as §1, §2, §3, §4, §5

[1] abbreviates: reporter cells, 24 hr incubation, Table 2, read-out: TRβ (EC50).
Where [2] appears, read: reporter cells, 24 hr incubation, Table 2, read-out: TRα (EC50).

Like-named read-outs stand apart in the source and are kept apart here. Bounds are passed on as bounds.

In general, EC50 refers to the midpoint of the concentration-response curve.

Consider `CNC(=O)COc1cc(Cl)c(Cc2ccc(O)c(C(C)C)c2)c(Cl)c1OC` [Compound 167, 2-(3,5-dichloro-4-(4-hydroxy-3-isopropylbenzyl)-2-methoxyphenoxy)-N-methylacetamide], for which the “T3-SI (selectivity index)” value on TRβ (Table 2) is “++ (3×<T3-SI≤30×)”. Moreover, the EC50 at TRβ (setting [1]) and at TRα (setting [2]) was 10 to 100 nM in each case.

Consider `CC(C)c1c(O)ccc(Cc2c(Cl)cc(OCC(=O)O)c(F)c2C(C)C)c1F` [Compound 123, 2-(5-chloro-2-fluoro-4-(2-fluoro-4-hydroxy-3-isopropylbenzyl)-3-isopropylphenoxy)acetic acid], for which the “T3-SI (selectivity index)” value on TRβ (Table 2) is “++ (3×<T3-SI≤30×)”. Moreover, the results for the EC50 at TRβ (setting [1]) and on TRα (setting [2]) were 10 to 100 nM and 100 to 1000 nM, respectively.

`COc1c(Cc2c(Cl)cc(OCC(=O)O)cc2Cl)ccc(O)c1C(C)C` [Compound 54, 2-(3,5-dichloro-4-(4-hydroxy-3-isopropyl-2-methoxybenzyl)phenoxy)acetic acid]: the “T3-SI (selectivity index)” value at TRβ (Table 2) was “++ (3×<T3-SI≤30×)”. Besides, the EC50 is 100 to 1000 nM on TRβ (setting [1]) and > 1000 nM at TRα (setting [2]).

`CCc1cc(OCC(=O)Nc2onc(C)c2C)cc(Cl)c1Cc1ccc(O)c(C(C)C)c1F` [Compound 142, 2-(3-chloro-5-ethyl-4-(2-fluoro-4-hydroxy-3-isopropylbenzyl)phenoxy)-N-(3,4-dimethylisoxazol-5-yl)acetamide]: on TRβ (Table 2), the “T3-SI (selectivity index)” value is “++ (3×<T3-SI≤30×)”. Also, the EC50 on TRβ (setting [1]) fell in the range of 10 to 100 nM; at TRα (setting [2]) it was 100 to 1000 nM.

`CNC(=O)COc1cc(C)c(Cc2ccc(O)c(C(C)C)c2)c(F)c1F` [Compound 133, 2-(2,3-difluoro-4-(4-hydroxy-3-isopropylbenzyl)-5-methylphenoxy)-N-methylacetamide]: the “T3-SI (selectivity index)” value on TRβ (Table 2) was “++ (3×<T3-SI≤30×)”. Besides, the EC50 at TRβ (setting [1]) and on TRα (setting [2]) was 10 to 100 nM each time.

On to `CCOC(=O)COc1cc(Cl)c(Cc2ccc(O)c(C(C)C)c2)c(Cl)c1OC` [Compound 165, ethyl 2-(3,5-dichloro-4-(4-hydroxy-3-isopropylbenzyl)-2-methoxyphenoxy)acetate], for which the “T3-SI (selectivity index)” value on TRβ (Table 2) was “++ (3×<T3-SI≤30×)”. For the same molecule, the 50% effective concentration (EC50) at TRβ (setting [1]) and at TRα (setting [2]) was 100 to 1000 nM each time.

As for `CC(C)c1cc(Cc2c(C(C)C)cc(OCC(=O)O)c(F)c2Cl)ccc1O` [Compound 81, 2-(3-chloro-2-fluoro-4-(4-hydroxy-3-isopropylbenzyl)-5-isopropylphenoxy)acetic acid], at TRβ (Table 2), the “T3-SI (selectivity index)” value was “++ (3×<T3-SI≤30×)”. The EC50 at TRβ (setting [1]) and at TRα (setting [2]) was 10 to 100 nM throughout.

Consider `CCOC(=O)COc1cc(F)c(Cc2ccc(O)c(C(C)C)c2)c(Cl)c1F` [Compound 147, ethyl 2-(3-chloro-2,5-difluoro-4-(4-hydroxy-3-isopropylbenzyl)phenoxy)acetate], for which, on TRβ (Table 2), the “T3-SI (selectivity index)” value was “+++ (T3-SI>30×)”. In addition, the EC50 is 100 to 1000 nM on TRβ (setting [1]) and > 1000 nM on TRα (setting [2]).

`O=C(O)COc1cc(Cl)c(Cc2ccc(O)c(Cc3ccc(F)cc3)c2F)c(Cl)c1` [Compound 28, 2-(3,5-dichloro-4-(2-fluoro-3-(4-fluorobenzyl)-4-hydroxybenzyl)phenoxy)acetic acid]: the “T3-SI (selectivity index)” value on TRβ (Table 2) is “++ (3×<T3-SI≤30×)”. Moreover, the EC50 on TRβ (setting [1]) and at TRα (setting [2]) was 10 to 100 nM throughout.

Take `CC(C)c1cc(OCC(=O)O)cc(Cl)c1Cc1ccc(O)c(C(C)C)c1F` [Compound 47, 2-(3-chloro-4-(2-fluoro-4-hydroxy-3-isopropylbenzyl)-5-isopropylphenoxy)acetic acid]: at TRβ (Table 2), the “T3-SI (selectivity index)” value is “++ (3×<T3-SI≤30×)”. Moreover, the EC50 on TRβ (setting [1]) and at TRα (setting [2]) was < 10 nM each time.

With `C=Cc1cc(OCC(=O)O)c(F)c(Cl)c1Cc1ccc(O)c(C(C)C)c1` [Compound 75, 2-(3-chloro-2-fluoro-4-(4-hydroxy-3-isopropylbenzyl)-5-vinylphenoxy)acetic acid], the “T3-SI (selectivity index)” value on TRβ (Table 2) is “+++ (T3-SI>30×)”. The EC50 lay within 10 to 100 nM at TRβ (setting [1]) and 100 to 1000 nM on TRα (setting [2]).

Turning to `Cc1cc(OCC(=O)O)cc(C(C)C)c1Cc1ccc(O)c(C(C)C)c1F` [Compound 13, 2-(4-(2-fluoro-4-hydroxy-3-isopropylbenzyl)-3-isopropyl-5-methylphenoxy)acetic acid], at TRβ (Table 2), the “T3-SI (selectivity index)” value is “++ (3×<T3-SI≤30×)”. Moreover, the EC50 at TRβ (setting [1]) and on TRα (setting [2]) was < 10 nM each time.

In the case of `CC(C)c1cc(Cc2c(Cl)cc(OCC(=O)O)cc2Cl)ccc1O` [JD-21, reference compound], the 50% effective concentration (EC50) on TRβ (Table 3, read-out: EC50-TRβ) turned out to be 79 nM; at TRα (Table 3, read-out: EC50-TRα) it was 190 nM. The T3-SI on TRβ (selectivity index, Table 3) worked out at 14.

Take `CCc1cc(OCC(=O)O)cc(C)c1Cc1ccc(O)c(C(C)C)c1F` [Compound 9, 2-(3-ethyl-4-(2-fluoro-4-hydroxy-3-isopropylbenzyl)-5-methylphenoxy)acetic acid]: at TRβ (Table 2), the “T3-SI (selectivity index)” value is “++ (3×<T3-SI≤30×)”. Also, the EC50 at TRβ (setting [1]) and at TRα (setting [2]) was 10 to 100 nM throughout.

Regarding `Cc1cc(OCC(=O)O)c(F)c(C)c1Cc1ccc(O)c(C(C)C)c1` [Compound 58, 2-(2-fluoro-4-(4-hydroxy-3-isopropylbenzyl)-3,5-dimethylphenoxy)acetic acid], on TRβ (Table 2), the “T3-SI (selectivity index)” value was “+++ (T3-SI>30×)”. Moreover, the figures for the EC50 at TRβ (setting [1]) and on TRα (setting [2]) were 10 to 100 nM and 100 to 1000 nM, respectively.

As for `O=C(O)COc1cc(Cl)c(Cc2ccc(O)c(-c3cc(C(F)(F)F)ccc3F)c2F)c(Cl)c1` [Compound 25, 2-(3,5-dichloro-4-((2,2′-difluoro-6-hydroxy-5′-(trifluoromethyl)-[1,1′-biphenyl]-3-yl)methyl)phenoxy)acetic acid], at TRβ (Table 2), the “T3-SI (selectivity index)” value was “++ (3×<T3-SI≤30×)”. For the same molecule, the EC50 is < 10 nM on TRβ (setting [1]) and 10 to 100 nM at TRα (setting [2]).

For `C=C(C)c1cc(OCC(=O)O)cc(Cl)c1Cc1ccc(O)c(C(C)C)c1F` [Compound 46, 2-(3-chloro-4-(2-fluoro-4-hydroxy-3-isopropylbenzyl)-5-(prop-1-en-2-yl)phenoxy)acetic acid], the “T3-SI (selectivity index)” value on TRβ (Table 2) was “++ (3×<T3-SI≤30×)”. The EC50 was < 10 nM at TRβ (setting [1]) and 10 to 100 nM at TRα (setting [2]).

Consider `CNC(=O)COc1cc(C)c(Cc2ccc(O)c(C(C)C)c2)c(Cl)c1F` [Compound 143, 2-(3-chloro-2-fluoro-4-(4-hydroxy-3-isopropylbenzyl)-5-methylphenoxy)-N-methylacetamide], for which the “T3-SI (selectivity index)” value at TRβ (Table 2) was “+++ (T3-SI>30×)”. For the same molecule, the EC50 at TRβ (setting [1]) lay within 10 to 100 nM; on TRα (setting [2]) it was 100 to 1000 nM.

In the case of `O=C(O)COc1cc(Cl)c(Cc2ccc(O)c(-c3cc(OC(F)F)ccc3F)c2F)c(Cl)c1F` [Compound 101, 2-(3,5-dichloro-4-((5′-(difluoromethoxy)-2,2′-difluoro-6-hydroxy-[1,1′-biphenyl]-3-yl)methyl)-2-fluorophenoxy)acetic acid], the “T3-SI (selectivity index)” value on TRβ (Table 2) was “++ (3×<T3-SI≤30×)”. Besides, the results for the 50% effective concentration (EC50) at TRβ (setting [1]) and at TRα (setting [2]) were 100 to 1000 nM and > 1000 nM, respectively.

With `CC(C)c1c(O)ccc(Cc2c(Cl)cc(OCC(=O)O)cc2Br)c1F` [Compound 40, 2-(3-bromo-5-chloro-4-(2-fluoro-4-hydroxy-3-isopropylbenzyl)phenoxy)acetic acid], the “T3-SI (selectivity index)” value on TRβ (Table 2) was “++ (3×<T3-SI≤30×)”. For the same molecule, the EC50 on TRβ (setting [1]) and on TRα (setting [2]) was < 10 nM throughout.
